What was measured:
[1] = Toxicokinetics in the 30 day repeated dose study in beagle dogs; format: in vivo
Protocol: The 30 day repeated dose study employed 12 male and 12 female dogs (Marshall's Farm, China). The dogs were acclimatized for a minimum period of 2 weeks and randomly divided into four main groups (G1-G4), each group comprising of 3 dogs per sex. The animals were dosed orally with capsules of NRC-2694A for a period of 30 consecutive days at dose levels of 10 mg/kg b.wt/day (G2-low dose), 20 mg/kg b.wt/day (G3-mid dose) and 40 mg/kg b.wt/day (G4-high dose). […] The control group (G1-0 mg/kg b. wt/day) animals were dosed by oral capsule with placebo.
The study also tracked body weight (weekly), food consumption (daily), opthalmological status (start and end), hematological and biochemical analyses (start and end), toxicokinetics analysis of plasma (start and end). At the end of the study, all dogs were euthanized by a humane and accepted procedure, subjected to a gross post-mortem examination, organ weights (absolute and relative) were determined, and histopathological examination was carried out.
The toxicokinetic parameters viz.

[2] = Acute oral toxicity (MTD) in Swiss albino mice; format: in vivo; details: for clinical signs of toxicity: oral, 1000 mg/kg (high dose), mono hydrochloride, 1000 mg/kg
Protocol: 20 male and 20 female Swiss albino mice were randomly divided into four groups (G1-G4). Each group was 5 male and 5 female Swiss albino mice. […] G1 was treated with placebo and served as a control. […] The mid dose group animals (G3-treated with 500 mg/kg b.wt) were administered the dose formulation twice with a gap of approximately 1 hour. Animals from high dose group (G4-treated with 1000 mg/kg b.wt) received the dose formulation four times with a gap of approximately one hour.

[3] = target: T1, BMPR1A (Homo sapiens, UniProt P36894); assay: KinomeScan kinase profiling; format: binding
T1 construct: purchased Ambit Biosciences Corp (KinomeScan); host or cells: E. coli host derived from the BL21 strain, T7 phage

[4] = target: T2, RPS6KA2 (Kin.Dom.-1-N-terminal) (Homo sapiens, UniProt Q15349); assay: KinomeScan kinase profiling; format: binding
T2 construct: RPS6KA2 (Kin.Dom.-1-N-terminal); host or cells: E. coli host derived from BL21, T7 phage lysate
T2 sequence (Q15349 59-318 limits assumed): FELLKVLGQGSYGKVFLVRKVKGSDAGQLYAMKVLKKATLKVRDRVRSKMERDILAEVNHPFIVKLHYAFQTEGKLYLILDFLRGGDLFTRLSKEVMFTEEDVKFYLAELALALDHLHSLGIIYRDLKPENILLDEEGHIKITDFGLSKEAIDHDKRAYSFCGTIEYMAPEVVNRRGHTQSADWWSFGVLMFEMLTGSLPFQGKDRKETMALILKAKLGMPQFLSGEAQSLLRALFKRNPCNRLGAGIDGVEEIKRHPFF

[5] = target: T3, ERK2 (Homo sapiens, UniProt P28482); assay: KinomeScan kinase profiling; format: binding
T3 construct: host or cells: E. coli host derived from BL21, T7 phage lysate
T3 sequence (P28482 whole entry): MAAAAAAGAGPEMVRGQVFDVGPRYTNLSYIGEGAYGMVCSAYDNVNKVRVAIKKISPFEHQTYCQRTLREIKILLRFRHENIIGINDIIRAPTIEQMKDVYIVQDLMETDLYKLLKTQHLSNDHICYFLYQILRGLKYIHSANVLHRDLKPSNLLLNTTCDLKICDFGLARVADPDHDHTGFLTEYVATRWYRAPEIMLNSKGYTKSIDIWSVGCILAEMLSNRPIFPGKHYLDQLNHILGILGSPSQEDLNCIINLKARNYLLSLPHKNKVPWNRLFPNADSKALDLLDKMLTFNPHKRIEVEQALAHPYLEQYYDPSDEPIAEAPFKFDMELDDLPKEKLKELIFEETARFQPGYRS

[6] = target: T4, CDK9 (Homo sapiens, UniProt P50750); assay: KinomeScan kinase profiling; format: binding
T4 construct: host or cells: T7 phage in E. coli (BL21-derived)

[7] = target: T5, PAK6 (Homo sapiens, UniProt Q9NQU5); assay: KinomeScan kinase profiling; format: binding
T5 construct: host or cells: E. coli host derived from the BL21 strain, infected with T7 phage

[8] = target: T6, CDC2L1 (Homo sapiens, UniProt P21127); assay: KinomeScan kinase profiling; format: binding
T6 construct: host or cells: T7 phage in E. coli (BL21-derived)
T6 sequence (P21127 whole entry): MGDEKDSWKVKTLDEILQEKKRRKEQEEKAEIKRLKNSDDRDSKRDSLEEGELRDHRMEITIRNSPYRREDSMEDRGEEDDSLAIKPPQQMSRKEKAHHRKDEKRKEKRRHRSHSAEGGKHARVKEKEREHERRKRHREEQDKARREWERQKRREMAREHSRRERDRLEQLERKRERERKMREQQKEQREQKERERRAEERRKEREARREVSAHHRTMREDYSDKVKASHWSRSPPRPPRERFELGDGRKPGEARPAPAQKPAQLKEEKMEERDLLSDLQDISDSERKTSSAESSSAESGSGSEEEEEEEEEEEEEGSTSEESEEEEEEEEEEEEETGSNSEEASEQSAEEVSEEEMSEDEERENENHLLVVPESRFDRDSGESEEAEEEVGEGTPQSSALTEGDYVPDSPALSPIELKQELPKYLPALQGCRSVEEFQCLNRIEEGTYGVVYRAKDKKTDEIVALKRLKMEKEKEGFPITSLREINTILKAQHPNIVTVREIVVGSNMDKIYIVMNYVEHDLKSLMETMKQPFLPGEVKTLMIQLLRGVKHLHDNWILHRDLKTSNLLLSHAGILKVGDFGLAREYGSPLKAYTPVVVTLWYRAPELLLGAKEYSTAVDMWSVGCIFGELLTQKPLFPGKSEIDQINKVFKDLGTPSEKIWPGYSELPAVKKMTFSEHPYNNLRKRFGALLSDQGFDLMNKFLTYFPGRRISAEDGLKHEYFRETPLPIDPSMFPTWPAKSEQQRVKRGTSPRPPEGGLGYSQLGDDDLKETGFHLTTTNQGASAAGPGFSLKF

[9] = target: T7, YANK2 (Homo sapiens, UniProt Q9NY57); assay: KinomeScan kinase profiling; format: binding
T7 construct: purchased Ambit Biosciences Corp (KinomeScan); host or cells: E. coli host derived from the BL21 strain (T7 phage lysate)
T7 sequence (Q9NY57 whole entry): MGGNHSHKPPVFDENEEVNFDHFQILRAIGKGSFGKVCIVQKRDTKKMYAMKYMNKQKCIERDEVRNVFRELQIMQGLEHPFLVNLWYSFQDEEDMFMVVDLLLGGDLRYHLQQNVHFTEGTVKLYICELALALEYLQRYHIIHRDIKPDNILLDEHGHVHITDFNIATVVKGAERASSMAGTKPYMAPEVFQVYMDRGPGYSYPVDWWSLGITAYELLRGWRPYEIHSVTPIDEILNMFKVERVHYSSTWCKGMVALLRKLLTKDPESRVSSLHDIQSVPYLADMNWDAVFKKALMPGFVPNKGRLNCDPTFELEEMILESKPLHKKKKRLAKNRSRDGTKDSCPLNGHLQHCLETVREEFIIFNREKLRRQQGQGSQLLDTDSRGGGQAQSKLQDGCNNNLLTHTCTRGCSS

[10] = target: T8, MEK6 (Homo sapiens, UniProt P52564); assay: KinomeScan kinase profiling; format: binding
T8 construct: host or cells: E. coli derived from BL21, infected with T7 phage

[11] = target: T9, ABL1 (T315I) (Homo sapiens, UniProt P00519, T315I); assay: KinomeScan kinase profiling; format: binding
T9 construct: host or cells: E. coli host derived from BL21 (T7 phage lysate)

[12] = target: T10, MAPKAPK2 (Homo sapiens, UniProt P49137); assay: KinomeScan kinase profiling; format: binding
T10 construct: host or cells: E. coli derived from BL21, infected with T7 phage
T10 sequence (P49137 whole entry): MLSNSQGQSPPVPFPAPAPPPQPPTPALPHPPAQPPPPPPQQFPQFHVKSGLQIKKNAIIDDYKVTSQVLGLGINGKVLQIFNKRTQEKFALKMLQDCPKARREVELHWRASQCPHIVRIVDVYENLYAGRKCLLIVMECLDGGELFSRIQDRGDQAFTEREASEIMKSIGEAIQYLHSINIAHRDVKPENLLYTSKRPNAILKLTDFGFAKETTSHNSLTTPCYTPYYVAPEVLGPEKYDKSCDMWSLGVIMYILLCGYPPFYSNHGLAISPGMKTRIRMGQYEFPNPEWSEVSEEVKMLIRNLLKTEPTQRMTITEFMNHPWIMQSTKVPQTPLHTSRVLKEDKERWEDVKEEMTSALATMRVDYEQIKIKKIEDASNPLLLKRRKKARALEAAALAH

[13] = target: T11, FGFR1 (Homo sapiens, UniProt P11362); assay: KinomeScan kinase profiling; format: binding
T11 construct: host or cells: E. coli host derived from BL21, infected with T7 phage
T11 sequence (P11362 22-822): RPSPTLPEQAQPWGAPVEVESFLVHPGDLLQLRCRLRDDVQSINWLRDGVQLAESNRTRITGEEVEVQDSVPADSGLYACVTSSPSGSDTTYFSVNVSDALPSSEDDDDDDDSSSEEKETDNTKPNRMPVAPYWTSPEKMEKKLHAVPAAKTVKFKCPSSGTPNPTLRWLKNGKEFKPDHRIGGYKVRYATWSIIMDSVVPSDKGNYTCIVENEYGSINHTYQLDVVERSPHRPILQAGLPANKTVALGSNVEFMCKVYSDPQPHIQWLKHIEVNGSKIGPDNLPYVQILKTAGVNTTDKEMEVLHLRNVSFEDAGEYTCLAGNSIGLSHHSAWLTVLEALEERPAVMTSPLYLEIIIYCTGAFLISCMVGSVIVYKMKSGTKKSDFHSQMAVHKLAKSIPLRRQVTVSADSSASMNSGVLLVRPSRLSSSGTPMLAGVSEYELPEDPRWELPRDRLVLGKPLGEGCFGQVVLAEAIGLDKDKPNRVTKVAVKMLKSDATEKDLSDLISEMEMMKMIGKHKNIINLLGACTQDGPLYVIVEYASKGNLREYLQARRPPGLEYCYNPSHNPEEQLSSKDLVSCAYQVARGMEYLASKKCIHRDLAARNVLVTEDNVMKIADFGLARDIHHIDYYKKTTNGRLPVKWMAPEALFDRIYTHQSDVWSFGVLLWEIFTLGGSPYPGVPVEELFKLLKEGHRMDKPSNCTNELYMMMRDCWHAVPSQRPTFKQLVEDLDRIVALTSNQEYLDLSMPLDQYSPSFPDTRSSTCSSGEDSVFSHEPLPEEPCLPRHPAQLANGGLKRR

[14] = target: T12, YES (Homo sapiens, UniProt P07947); assay: KinomeScan kinase profiling; format: binding
T12 construct: purchased Ambit Biosciences Corp (KinomeScan); host or cells: E. coli host derived from the BL21 strain (T7 phage lysate)
T12 sequence (P07947 whole entry): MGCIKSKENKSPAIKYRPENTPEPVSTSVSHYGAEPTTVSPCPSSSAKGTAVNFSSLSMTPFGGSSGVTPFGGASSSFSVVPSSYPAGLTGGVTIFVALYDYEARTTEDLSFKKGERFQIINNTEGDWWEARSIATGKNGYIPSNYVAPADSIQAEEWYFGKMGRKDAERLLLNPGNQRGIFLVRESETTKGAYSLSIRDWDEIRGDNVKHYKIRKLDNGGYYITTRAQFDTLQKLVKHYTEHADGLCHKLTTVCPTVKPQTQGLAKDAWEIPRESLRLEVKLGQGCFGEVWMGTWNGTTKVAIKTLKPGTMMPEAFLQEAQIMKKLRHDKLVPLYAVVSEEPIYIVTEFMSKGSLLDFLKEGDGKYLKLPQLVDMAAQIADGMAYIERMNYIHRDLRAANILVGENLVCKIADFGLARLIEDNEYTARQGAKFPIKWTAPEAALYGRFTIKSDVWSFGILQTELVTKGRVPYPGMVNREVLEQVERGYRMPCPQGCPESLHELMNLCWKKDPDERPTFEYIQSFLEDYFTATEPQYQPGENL

[15] = target: T13, PKAC-beta (Homo sapiens, UniProt P22694); assay: KinomeScan kinase profiling; format: binding
T13 construct: purchased Ambit Biosciences Corp (KinomeScan); host or cells: E. coli host derived from BL21, infected with T7 phage

[16] = target: T14, SRPK3 (Homo sapiens, UniProt Q9UPE1); assay: KinomeScan kinase profiling; format: binding
T14 construct: host or cells: E. coli host derived from the BL21 strain, T7 phage lysate
T14 sequence (Q9UPE1 whole entry): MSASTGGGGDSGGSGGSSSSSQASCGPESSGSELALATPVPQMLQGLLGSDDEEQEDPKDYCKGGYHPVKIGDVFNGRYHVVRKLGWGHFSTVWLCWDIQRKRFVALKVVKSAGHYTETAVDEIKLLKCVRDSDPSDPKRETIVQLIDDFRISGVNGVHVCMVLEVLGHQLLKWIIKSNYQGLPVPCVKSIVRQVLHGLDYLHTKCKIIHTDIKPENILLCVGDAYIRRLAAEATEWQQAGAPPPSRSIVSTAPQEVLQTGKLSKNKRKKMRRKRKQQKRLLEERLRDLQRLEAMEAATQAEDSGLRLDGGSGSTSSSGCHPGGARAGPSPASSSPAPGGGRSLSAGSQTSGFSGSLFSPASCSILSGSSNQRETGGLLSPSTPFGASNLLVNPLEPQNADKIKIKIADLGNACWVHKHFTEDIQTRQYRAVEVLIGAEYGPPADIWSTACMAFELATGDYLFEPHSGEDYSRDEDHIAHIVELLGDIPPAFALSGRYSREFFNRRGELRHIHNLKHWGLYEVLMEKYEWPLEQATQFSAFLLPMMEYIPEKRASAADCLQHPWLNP

[17] = target: T15, TAOK1 (Homo sapiens, UniProt Q7L7X3); assay: KinomeScan kinase profiling; format: binding
T15 construct: host or cells: E. coli host derived from the BL21 strain, T7 phage lysate

[18] = target: T16, PIP5K2B (Homo sapiens, UniProt P78356); assay: KinomeScan kinase profiling; format: binding
T16 construct: purchased Ambit Biosciences Corp (KinomeScan); host or cells: E. coli host derived from BL21, infected with T7 phage

[19] = target: T17, PRKCD (Homo sapiens, UniProt Q05655); assay: KinomeScan kinase profiling; format: binding
T17 construct: purchased Ambit Biosciences Corp (KinomeScan); host or cells: E. coli host derived from BL21, infected with T7 phage
T17 sequence (Q05655 whole entry): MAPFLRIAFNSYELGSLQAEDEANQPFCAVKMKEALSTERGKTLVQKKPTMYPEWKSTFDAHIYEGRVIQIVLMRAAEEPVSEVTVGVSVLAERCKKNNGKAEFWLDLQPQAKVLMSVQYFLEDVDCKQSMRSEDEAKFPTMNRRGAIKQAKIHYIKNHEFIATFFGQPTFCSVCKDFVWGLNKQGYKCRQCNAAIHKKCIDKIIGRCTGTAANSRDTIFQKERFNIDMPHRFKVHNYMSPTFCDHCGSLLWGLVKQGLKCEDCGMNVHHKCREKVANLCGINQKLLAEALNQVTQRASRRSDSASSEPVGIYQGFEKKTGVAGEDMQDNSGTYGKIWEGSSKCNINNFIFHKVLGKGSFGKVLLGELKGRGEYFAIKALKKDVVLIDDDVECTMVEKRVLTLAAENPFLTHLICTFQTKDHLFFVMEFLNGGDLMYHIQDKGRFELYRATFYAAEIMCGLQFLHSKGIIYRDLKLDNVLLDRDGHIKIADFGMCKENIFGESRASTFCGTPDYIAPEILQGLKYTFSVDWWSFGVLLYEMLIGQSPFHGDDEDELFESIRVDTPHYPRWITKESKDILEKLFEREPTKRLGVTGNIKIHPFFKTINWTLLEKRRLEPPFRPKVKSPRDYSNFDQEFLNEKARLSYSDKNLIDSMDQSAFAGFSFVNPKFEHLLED

[20] = target: T18, SRPK1 (Homo sapiens, UniProt Q96SB4); assay: KinomeScan kinase profiling; format: binding
T18 construct: host or cells: E. coli host derived from the BL21 strain, T7 phage lysate

[21] = target: T19, FGFR2 (Homo sapiens, UniProt P21802); assay: KinomeScan kinase profiling; format: binding
T19 construct: host or cells: E. coli host derived from BL21, infected with T7 phage

C#Cc1cccc(Nc2ncnc3cc(OC)c(OCCCN4CCOCC4)cc23)c1.Cl [NRC-2694 monohydrochloride, N-(3-ethylnylphenyl)-7-methoxy-6-[3-(4-morpholinyl)propoxy]-4-quinazolinamine mono hydrochloride]
median Tmax ([1]; day 1, female dogs, 10 mg/kg oral): 2 h | median Tmax ([1]; day 1, female dogs, 20 mg/kg oral): 4 h | median Tmax ([1]; day 1, female dogs, 40 mg/kg oral): 4 h | median Tmax ([1]; day 1, male dogs, 10 mg/kg oral): 2 h | median Tmax ([1]; day 1, male dogs, 20 mg/kg oral): 3 h | median Tmax ([1]; day 1, male dogs, 40 mg/kg oral): 2 h | median Tmax ([1]; day 30, female dogs, 10 mg/kg oral): 2 h | median Tmax ([1]; day 30, female dogs, 20 mg/kg oral): 4 h | median Tmax ([1]; day 30, male dogs, 10 mg/kg oral): 2 h | median Tmax ([1]; day 30, male dogs, 20 mg/kg oral): 3 h | Cmax, dose dependence ([1]; three dose levels, male and female dogs): dose-dependent change | maximum tolerated dose (MTD) ([2]; acute oral gavage, Swiss albino mice): 1000 mg/kg body weight | gross pathological examination ([2]; mice, after day 14): did not reveal any lesions of pathological significance | mean body weight and percent body weight ([2]; mice, compared with control groups): No significant alterations | toxic signs or mortality ([2]; mice, oral gavage, 250 mg/kg body weight (low dose) and 500 mg/kg (mid dose)): did not produce any toxic signs or mortality | clinical signs of toxicity ([2]; mice, listed as NRC-2694A blend): signs of lethargy and piloerection in all animals without any mortality | clinical signs of toxicity ([2]; mice): mild lethargy and piloerection | mortality ([2]; mice, oral, 250, 500 and 1000 mg/kg, 14 days observation): No mortality

C#Cc1cccc(Nc2ncnc3cc(OC)c(OCCCN4CCOCC4)cc23)c1 [NRC-2694, N-(3-ethylnylphenyl)-7-methoxy-6-[3-(4-morpholinyl)propoxy]-4-quinazolinamine]
% Ctrl @ 10000 nM [3]: 100 % Ctrl | % Ctrl @ 10000 nM [4]: 70 % Ctrl | % Ctrl @ 10000 nM [5]: 100 % Ctrl | % Ctrl @ 10000 nM [6]: 86 % Ctrl | % Ctrl @ 10000 nM [7]: 70 % Ctrl | % Ctrl @ 10000 nM [8]: 42 % Ctrl | % Ctrl @ 10000 nM [9]: 68 % Ctrl | % Ctrl @ 10000 nM [10]: 75 % Ctrl | % Ctrl @ 10000 nM [11]: 35 % Ctrl | % Ctrl @ 10000 nM [12]: 90 % Ctrl | % Ctrl @ 10000 nM [13]: 64 % Ctrl | % Ctrl @ 10000 nM [14]: 41 % Ctrl | % Ctrl @ 10000 nM [15]: 88 % Ctrl | % Ctrl @ 10000 nM [16]: 38 % Ctrl | % Ctrl @ 10000 nM [17]: 54 % Ctrl | % Ctrl @ 10000 nM [18]: 49 % Ctrl | % Ctrl @ 10000 nM [19]: 84 % Ctrl | % Ctrl @ 10000 nM [20]: 40 % Ctrl | % Ctrl @ 10000 nM [21]: 100 % Ctrl

From patent US9050341B2, “Methods of treating drug resistant and other tumors by administering 6,7-dialkoxy quinazoline derivatives” (NATCO PHARMA LIMITED, priority 2009, dated 2015)
